# Target: ATX (human His-tagged) (Homo sapiens (Human), UniProt Q13822)
# Assay: Human ATX enzyme inhibition assay (fluorescence quenching, MR121 substrate)
# Format: biochemical
# Settings: 30 nM ATX, 1 μM MR121 substrate, 30° C.
# Excerpt: Human ATX Enzyme Inhibition Assay
# Assay working solutions were made as follows:
row,IC50,SMILES
1,1910 nM,"O=C(NC1CC2(C1)CN(C(=O)OCc1cc(F)cc(C(F)(F)F)c1)C2)c1ccc2[nH]nnc2c1 [Example 12.23, 6-[(1H-benzotriazole-5-carbonyl)-amino]-2-aza-spiro[3.3]heptane-2-carboxylic acid 3-fluoro-5-trifluoromethyl-benzyl ester]"
2,74 nM,"CC(C)c1cc(C#N)ccc1OCC(=O)N1CCC2(CC1)CN(C(=O)C1CCc3[nH]nnc3C1)C2 (stereo not shown) [Example 1.25, 3-isopropyl-4-(2-oxo-2-(2-(4,5,6,7-tetrahydro-1H-benzo[d][1,2,3]triazole-5-carbonyl)-2,7-diazaspiro[3.5]nonan-7-yl)ethoxy)benzonitrile]"
3,22 nM,"CS(=O)(=O)c1cc(Cl)cc(COC(=O)N2CCC3(CC2)CN(S(=O)(=O)c2ccc4[nH]c(=O)oc4c2)C3)c1 [Example 12.31, 3-chloro-5-(methylsulfonyl)benzyl 2-(2-oxo-2,3-dihydrobenzo[d]oxazol-6-ylsulfonyl)-2,7-diazaspiro[3.5]nonane-7-carboxylate]"
4,12 nM,"O=C(CCc1ccc(OC(F)(F)F)cc1)N1CCC2(CC1)CN(C(=O)c1ccc3[nH]nnc3c1)C2 [Example 1.24, 1-(2-(1H-benzo[d][1,2,3]triazole-5-carbonyl)-2,7-diazaspiro[3.5]nonan-7-yl)-3-(4-(trifluoromethoxy)phenyl)propan-1-one]"
5,107 nM,"Nc1ccc(C(=O)N2CC3(CCN(C(=O)OCc4cc(Cl)cc(Cl)c4)CC3)C2)cc1O [Example 1.06, 3,5-dichlorobenzyl 2-(4-amino-3-hydroxybenzoyl)-2,7-diazaspiro[3.5]nonane-7-carboxylate]"
6,38 nM,"CS(=O)(=O)c1cc(Cl)cc(COC(=O)N2CCC3(CC2)CN(C(=O)c2ccc4[nH]c(=O)oc4c2)C3)c1 [Example 2.1, 3-chloro-5-(methylsulfonyl)benzyl 2-(2-oxo-2,3-dihydrobenzo[d]oxazole-6-carbonyl)-2,7-diazaspiro[3.5]nonane-7-carboxylate]"
7,50.5 nM,"CS(=O)(=O)c1cc(Cl)cc(COC(=O)N2CCC3(CC2)CN(C(=O)c2ccc4[nH]nnc4c2)C3)c1 [Example 1.09, 3-chloro-5-(methylsulfonyl)benzyl 2-(1H-benzo[d][1,2,3]triazole-5-carbonyl)-2,7-diazaspiro[3.5]nonane-7-carboxylate]"
8,64.5 nM,"O=C(OCc1cc(Cl)cc(Cl)c1)N1CC2(CCN(C(=O)c3ccc4[nH]nnc4c3)CC2)C1 [Example 1.15, 3,5-dichlorobenzyl 7-(1H-benzo[d][1,2,3]triazole-5-carbonyl)-2,7-diazaspiro[3.5]nonane-2-carboxylate]"
9,5 nM,"O=C(OCc1ccc(OCC(F)(F)F)cc1)N1CCC2(CC1)CN(C(=O)C1CCc3nn[nH]c3C1)C2 (stereo not shown) [Example 12.39, 4-(2,2,2-trifluoroethoxy)benzyl 2-(4,5,6,7-tetrahydro-1H-benzo[d][1,2,3]triazole-6-carbonyl)-2,7-diazaspiro[3.5]nonane-7-carboxylate]"
10,821 nM,"O=C(c1ccc2[nH]nnc2c1)N1CC2(CCN(S(=O)(=O)CCc3cccc(Cl)c3)CC2)C1 [Example 1.21, (1H-benzotriazol-5-yl)-{7-[2-(3-chloro-phenyl)-ethanesulfonyl]-2,7-diaza-spiro[3.5]non-2-yl}-methanone]"
11,3350 nM,"O=C(NC1CC2(C1)CN(C(=O)CCCc1ccccc1)C2)c1ccc2[nH]nnc2c1 [Example 1.08, N-(2-(4-phenylbutanoyl)-2-azaspiro[3.3]heptan-6-yl)-1H-benzo[d][1,2,3]triazole-5-carboxamide]"
12,1040 nM,"Nc1ccc(C(=O)N2CC3(CCN(C(=O)CCc4cc(Cl)cc(Cl)c4)CC3)C2)cc1O [Example 1.05, 1-(2-(4-amino-3-hydroxybenzoyl)-2,7-diazaspiro[3.5]nonan-7-yl)-3-(3,5-dichlorophenyl)propan-1-one]"
13,20 nM,"O=C(NC1CC2(C1)CN(S(=O)(=O)c1ccc3[nH]c(=O)oc3c1)C2)OCc1cc(Cl)cc(Cl)c1 [Example 3.5, [2-(2-oxo-2,3-dihydro-benzooxazole-6-sulfonyl)-2-aza-spiro[3.3]hept-6-yl]-carbamic acid 3,5-dichloro-benzyl ester]"

# Reference: US9493486B2, “Diazaspirocycloalkane and azaspirocycloalkane” (Hoffmann-La Roche Inc., priority 2012, dated 2016)
